For 19 compounds, IC50 and TD50 results are on record in US8008303B2, “Biphenyl derivatives and their use in treating hepatitis C” (AstraZeneca AB, priority 2005, dated 2011).

For orientation: IC50 means the point on the concentration scale where inhibition reaches its midpoint.

In series [1] the test system is HCV replicon cells Huh 9B. As to the kind of experiment: HCV replicon assay (luciferase readout). The series is classed as cell-based. The method, then:
(§1) HCV replicon cells Huh 9B (ReBlikon), containing the firefly luciferase-ubiquitin-neomycin phosphotransferase fusion protein and EMCV-IRES driven HCV polyprotein with cell culture adaptive mutations.
Cells were cultured at 37° C. in a 5% CO2 environment and split twice a week on seeding at 2×10^6 cells/flask on day 1 and 1×10^6 3 days later. G418 at 0.5 mg/ml was added to the culture medium but not the assay medium.
The culture medium consisted of DMEM with […] glucose and glutamax (Gibco 61965-026) supplemented with 1× non-essential amino acids (Invitrogen 11140-035), penicillin (100 IU/ml)/streptomycin (100 μg/ml) (Invitrogen 15140-122), FCS (10%, 50 ml) and 1 mg/ml G418 (Invitrogen 10131-027) & 10% Australian foetal calf serum (Invitrogen 10099-141).
A flask of cells was trypsinised and a cell count carried out. Cells were diluted to 100,000 cells/ml and 100 μl of this used to seed one opaque white 96-well plate (for the replicon assay) and one flat-bottomed clear plate (for the tox assay) for every seven compounds to be tested for IC50. Wells G12 and H12 were left empty in the clear plate as the blank. Plates were then incubated at 37° C. in a 5% CO2 environment for 24 h.
(§2) On the following day compound dilutions are made up in medium at twice their desired final concentration in a clear round bottomed plate. All dilutions have a final DMSO concentration of 1%.
Once the dilution plate had been made up, controls and compounds were transferred to the assay plate (containing the cells) at 100 μl /well in duplicate plates. Exception: no compound was added to wells A1 and A2 of either plate and 100 μl of 1% DMSO was added to these instead. Plates were then incubated at 37° C. with 5% CO2 for 72 h.
At the end of the incubation time, the cells in the white plate were harvested by washing 23.5 mM beetle luciferin (Promega E1603), 26 mM ATP (Sigma 0-2060) in […] Tris buffer pH 7.8 aliquoted and stored at −80 C was thawed and diluted 1:50 in luciferase assay buffer (20 mM Tricine (Sigma T-0377), 1.07 mM magnesium carbonate hydroxide (Sigma M-5671), 0.1 mM EDTA (Sigma E-5134), 2.67 mM MgSO4 (BDH 101514Y), 33.3 mM dithiothreitol (Sigma 150460) pH 7.8).
The M injector of the microplate luminometer (Lmax, Molecular Devices) was primed with 5×300 μl injections of the diluted substrate. After 5-60 min incubation in lysis buffer at room temperature, a plate was inserted into the luminometer and 100 μl luciferase assay reagent was added by the injector on the luminometer. The signal was measured using a 1 second delay followed by a 4 second measurement programme.
On the technique in general: Replicon systems follow genome replication, usually without infectious particles.

Series [2] relates to HCV replicon cells Huh 9B. The format is cell-based. The method, then: as §1
A flask of cells was trypsinised and a cell count carried out. […] Wells G12 and H12 were left empty in the clear plate as the blank. Plates were then incubated at 37° C. in a 5% CO2 environment for 24 h.
as §2
Exception: no compound was added to wells A1 and A2 of either plate and 100 μl of 1% DMSO was added to these instead. Plates were then incubated at 37° C. with 5% CO2 for 72 h.
The clear plate was stained with 100 μl 0.5% methylene blue in 50% ethanol at room temperature for 1 h, followed by solvation of the absorbed methylene blue in 100 μl per well of 1% lauroylsarcosine. Absorbance of the plate was measured on a microplate spectrophotometer (Molecular Devices) and the absorbance for each concentration of compound expressed as a proportion of the relative DMSO control.

The mark [3] stands for this setting: Hepatitis C virus, 72 h, concentration reducing replicon level (luciferase activity) by 50% vs untreated cell control, 72 h incubation.
The mark [4] stands for this setting: concentration reducing total cell area by 50% relative to DMSO controls, methylene blue, absorbance 620 nm, 72 h incubation.

Like-named read-outs stand apart in the source and are kept apart here.

In the case of `O=C(Nc1ccc(CN2CCS(=O)(=O)CC2)cc1)c1ccc(-c2cc(NC(=O)C3CCCCC3)ccc2F)cc1` [Example 191, 5′-(Cyclohexanecarbonyl-amino)-2′-fluoro-biphenyl-4-carboxylic acid [4-(1,1-dioxo-1lambda*6*-thiomorpholin-4-ylmethyl)-phenyl]-amide], the IC50 in series [1] (setting [3]) is greater than 5000 nM. The TD50 result in series [2] (setting [4]) is “* (* < 50 μM)”.

In series [1] (setting [3]), `Cc1ccc(C(=O)Nc2ccc(C)c(-c3ccc(C(=O)Nc4ccc(CN5CCS(=O)(=O)CC5)cc4)cc3)c2)cc1` [Example 160, 2′-Methyl-5′-(4-methyl-benzoylamino)-biphenyl-4-carboxylic acid [4-(1,1-dioxo-1lambda*6*-thiomorpholin-4-ylmethyl)-phenyl]-amide] showed a 50% inhibitory concentration (IC50) of less than 1000 nM. In series [2] (setting [4]), the TD50 result was “* (* < 50 μM)”.

Consider `Cc1ccc(NC(=O)c2ccc(N3CCOCC3)cc2)cc1-c1ccc(C(=O)Nc2ccc3cc[nH]c3c2)cc1` [Example 93, 2′-Methyl-5′-(4-morpholin-4-yl-benzoylamino)-biphenyl-4-carboxylic acid (1H-indol-6-yl)-amide], for which the IC50 in series [1] (setting [3]) is less than 1000 nM. The TD50 entry in series [2] (setting [4]) was “** (** > 50 μM)”.

`CC(=O)Nc1cc(NC(=O)c2ccc(-c3cc(C(=O)Nc4ccc(N5CCOCC5)cc4)ccc3C)cc2)ccc1C` [Example 77, 6-Methyl-biphenyl-3,4′-dicarboxylic acid 4′-[(3-acetylamino-4-methyl-phenyl)-amide] 3-[(4-morpholin-4-yl-phenyl)-amide]] gave an IC50 in series [1] of 1000 to 5000 nM. Further, in series [2], the TD50 entry is recorded as “* (key: * < 50 μM; ** > 50 μM)”.

Compound `Cc1ccc(C(=O)Nc2ccc(N3CCOCC3)cc2)cc1-c1ccc(C(=O)Nc2cccc(OC(F)(F)F)c2)cc1` [Example 25, 6-Methyl-biphenyl-3,4′-dicarboxylic acid 3-[(4-morpholin-4-yl-phenyl)-amide] 4′-[(3-trifluoromethoxy-phenyl)-amide]] showed an IC50 in series [1] of 1000 to 5000 nM. Also, in series [2], the TD50 entry is “* (key: * < 50 μM; ** > 50 μM)”.

As for `Cc1ccc(NC(=O)C2CCCCC2)cc1-c1ccc(C(=O)Nc2ccc(-c3ccno3)cc2)cc1` [Example 231, 5′-(Cyclohexanecarbonyl-amino)-2′-methyl-biphenyl-4-carboxylic acid (4-isoxazol-5-yl-phenyl)-amide], the IC50 in series [1] (setting [3]) is greater than 5000 nM. Further, the TD50 result in series [2] (setting [4]) is given as “* (* < 50 μM)”.

Take `Cc1ccc(NC(=O)C2CC2)cc1-c1ccc(C(=O)Nc2ccc(-n3cncn3)cc2)cc1` [Example 218, 5′-(Cyclopropanecarbonyl-amino)-2′-methyl-biphenyl-4-carboxylic acid (4-[1,2,4]triazol-1-yl-phenyl)-amide]: in series [1] (setting [3]), the IC50 was less than 1000 nM. Moreover, the TD50 entry in series [2] (setting [4]) is “* (* < 50 μM)”.

For the compound `Cc1ccc(C(=O)Nc2ccc(N3CCOCC3)cc2)cc1-c1ccc(C(=O)Nc2cccc(C(C)O)c2)cc1` (centres unmarked) [Example 31, 6-Methyl-biphenyl-3,4′-dicarboxylic acid 4′-{[3-(1-hydroxy-ethyl)-phenyl]-amide} 3-[(4-morpholin-4-yl-phenyl)-amide]], the IC50 in series [1] lay in the range of 1000 to 5000 nM. Besides, the TD50 entry in series [2] is on record as “** (key: * < 50 μM; ** > 50 μM)”.

In series [1] (setting [3]), `Cc1ccc(NC(=O)C(C)(C)C)cc1-c1ccc(C(=O)Nc2ccc(CN3CCS(=O)(=O)CC3)cc2)cc1` [Example 184, 5′-(2,2-Dimethyl-propionylamino)-2′-methyl-biphenyl-4-carboxylic acid [4-(1,1-dioxo-1lambda*6*-thiomorpholin-4-ylmethyl)-phenyl]-amide] displayed a half-maximal inhibitory concentration (IC50) of less than 1000 nM. The TD50 result in series [2] (setting [4]) is on record as “* (* < 50 μM)”.

For `CS(=O)(=O)N1CCN(Cc2ccc(NC(=O)c3ccc(-c4cc(NC(=O)NC5CCCCC5)ccc4OC(F)(F)F)cc3)cc2)CC1` [Example 235, 5′-(3-Cyclohexyl-ureido)-2′-trifluoromethoxy-biphenyl-4-carboxylic acid [4-(4-methanesulfonyl-piperazin-1-ylmethyl)-phenyl]-amide], the IC50 in series [1] (setting [3]) was less than 1000 nM. Moreover, the TD50 entry in series [2] (setting [4]) is “* (* < 50 μM)”.

Take `CCOC(=O)c1ccc(-c2cc(NC(=O)OC(C)(C)C)ccc2C)cc1` [Example 210, 5′-tert-Butoxycarbonylamino-2′-methyl-biphenyl-4-carboxylic acid ethyl ester]: in series [1] (setting [3]), the IC50 was in the range of 1000 to 5000 nM. Further, the TD50 entry in series [2] (setting [4]) was “* (* < 50 μM)”.

In series [1] (setting [3]), `COc1ccc(NC(=O)C2CCCCC2)cc1-c1ccc(C(=O)Nc2ccc(CN3CCS(=O)(=O)CC3)cc2)cc1` [Example 187, 5′-(Cyclohexanecarbonyl-amino)-2′-methoxy-biphenyl-4-carboxylic acid [4-(1,1-dioxo-1lambda*6*-thiomorpholin-4-ylmethyl)-phenyl]-amide] showed an IC50 of less than 1000 nM. In series [2] (setting [4]), the TD50 entry is “* (* < 50 μM)”.

`Cc1ccc(C(=O)Nc2ccc(N3CCOCC3)cc2)cc1-c1ccc(NC(=O)Cc2cccc(Cl)c2)cc1` [Example 106, 4′-[2-(3-Chloro-phenyl)-acetylamino]-6-methyl-biphenyl-3-carboxylic acid (4-morpholin-4-yl-phenyl)-amide] gave an IC50 in series [1] (setting [3]) of 1000 to 5000 nM. Besides, the TD50 entry in series [2] (setting [4]) is given as “** (** > 50 μM)”.

As to `Cc1ccc(NC(=O)C2CCCCC2)cc1-c1ccc(NC(=O)c2ccc(CN3CCS(=O)(=O)CC3)cc2)cc1` [Example 150, N-[5′-(Cyclohexanecarbonyl-amino)-2′-methyl-biphenyl-4-yl]-4-(1,1-dioxo-1lambda*6*-thiomorpholin-4-ylmethyl)-benzamide], in series [1] (setting [3]), the IC50 was less than 1000 nM. Moreover, in series [2] (setting [4]), the TD50 entry is listed as “* (* < 50 μM)”.

In series [1] (setting [3]), `Cc1ccc(NC(=O)N2CCOCC2)cc1-c1ccc(C(=O)Nc2ccc(CN3CCS(=O)(=O)CC3)cc2)cc1` [Example 152, Morpholine-4-carboxylic acid {4′-[4-(1,1-dioxo-1lambda*6*-thiomorpholin-4-ylmethyl)-phenylcarbamoyl]-6-methyl-biphenyl-3-yl}-amide] gave an IC50 of less than 1000 nM. Moreover, the TD50 entry in series [2] (setting [4]) was “** (** > 50 μM)”.

For `Cc1ccc(C(=O)Nc2ccc(N3CCOCC3)cc2)cc1-c1ccc(C(=O)Nc2cc(Br)cc3cc[nH]c23)cc1` [Example 55, 6-Methyl-biphenyl-3,4′-dicarboxylic acid 4′-[(5-bromo-1H-indol-7-yl)-amide] 3-[(4-morpholin-4-yl-phenyl)-amide]], in series [1], the IC50 was in the range of 1000 to 5000 nM. Besides, the TD50 result in series [2] is listed as “** (key: * < 50 μM; ** > 50 μM)”.

Compound `O=C(Nc1ccc(CN2CCS(=O)(=O)CC2)cc1)c1ccc(-c2cc(NC(=O)C3CC3)ccc2OC(F)(F)F)cc1` [Example 185, 5′-(Cyclopropanecarbonyl-amino)-2′-trifluoromethoxy-biphenyl-4-carboxylic acid [4-(1,1-dioxo-1lambda*6*-thiomorpholin-4-ylmethyl)-phenyl]-amide] yielded a concentration for half-maximal inhibition (IC50) in series [1] (setting [3]) of less than 1000 nM. Also, in series [2] (setting [4]), the TD50 result is recorded as “* (* < 50 μM)”.

Consider `Cc1ccc(NC(=O)C2CCOCC2)cc1-c1ccc(C(=O)Nc2ccc(CN3CCS(=O)(=O)CC3)cc2)cc1` [Example 170, Tetrahydro-pyran-4-carboxylic acid {4′-[4-(1,1-dioxo-1lambda*6*-thiomorpholin-4-ylmethyl)-phenylcarbamoyl]-6-methyl-biphenyl-3-yl}-amide], for which the half-maximal inhibitory concentration (IC50) in series [1] (setting [3]) is less than 1000 nM. Also, the TD50 result in series [2] (setting [4]) was “* (* < 50 μM)”.

`Cc1ccc(C(=O)Nc2ccc(N3CCOCC3)cc2)cc1-c1ccc(C(=O)NCc2cccc(OC(F)(F)F)c2)cc1` [Example 41, 6-Methyl-biphenyl-3,4′-dicarboxylic acid 3-[(4-morpholin-4-yl-phenyl)-amide] 4′-(3-trifluoromethoxy-benzylamide)] yielded an IC50 in series [1] of less than 1000 nM. In addition, the TD50 result in series [2] is “** (key: * < 50 μM; ** > 50 μM)”.
